Assay results taken from US6921848B2, “Genes involved in brassinosteroid hormone action in plants” (The Salk Institute for Biological Studies, priority 2001, dated 2005).

How the values were obtained:
[1] = test system: Arabidopsis plants; assay: Brassinazole application to Arabidopsis plants (mutant screen); type: in vivo, Arabidopsis thaliana; settings: EMS mutagenized Arabidopsis plants, most plants
Procedure: EMS mutagenized Arabidopsis seeds were grown into plants that were then subjected to a suppressor screen for mutants insensitive to the brassinosteroid pathway inhibitor brassinazole. […] The mutant protein is herein referred to as bzr1-D (SEQ ID NO. 7).
(§1) The mutagenized plants were put through a screening procedure based on the use of brassinazole, a triazole-type brassinosteroid biosynthesis inhibitor (Asami, et al., Plant Physiol. 123: 93, 2000).

[2] = test system: bzr1-D mutant; assay: Brassinazole sensitivity of the bzr1-D mutant; type: in vivo, Arabidopsis thaliana
Source text: as §1
The dark-grown bzr1-D mutant is insensitive to brassinazole inhibition of hypocotyl elongation. The bzr1-D mutant has a curly hypocotyl similar to that of a seedling grown on medium containing brassinosteroids.

[3] = test system: Arabidopsis plants; settings: normal Arabidopsis plants; cited from earlier work

Compound: CC(O)(c1ccccc1)C(Cc1ccc(Cl)cc1)n1cncn1 (stereo not shown) [brassinazole]
- Phenotype of plants treated with brassinazole [1]: stunted
- Bassinazole sensitivity ([2]; dark-grown): insensitive
- Bassinazole sensitivity ([2]; light-grown): partially sensitive
- Effects of brassinazole application [3]: dwarfism, altered leaf morphology, darker greening of leaves, and decreased hypocotyl length
